# Assay results published in patent publication US20260109707A1, “HETEROBIFUNCTIONAL COMPOUNDS AND METHODS OF TREATING DISEASE” (Halda Therapeutics OpCo. Inc., priority 2022, published 2026).
# Read-outs that look alike come from different tables or passages of the source.
# How the values were obtained:
# [1] = test system: T-Rex 293 cell line SC3 cells having increased expression of androgen receptor protein due to exposure to doxycycline; test: Cellular growth inhibition assay, T-Rex 293 SC3 cells with doxycycline (CellTiter-Glo, 72 hours); format: cell-based; details: 72 h, T-Rex 293 SC3 cells with increased androgen receptor expression due to doxycycline (10 ng/mL)
# Method in brief: (§1)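 Growth inhibition is measured in an inducible AR-expressing T-Rex 293 clone, SC3, cultured with or without 10 ng/mL doxycycline in hormone-depleted medium. Test compounds are applied for 72 hours. GI50 values derive from CellTiter-Glo 2.0 signal fitted by four-parameter regression.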
# [2] = test system: T-Rex 293 cell line SC3 cells lacking increased expression of androgen receptor protein; test: Cellular growth inhibition assay, T-Rex 293 SC3 cells without doxycycline (CellTiter-Glo, 72 hours); format: cell-based; details: T-Rex 293 cell line SC3 cells not exposed to doxycycline (lacking increased androgen receptor expression)
# Method in brief: as §1
# VCaP cells = test: Cellular growth inhibition assay for VCaP cells (CellTiter-Glo, 72 hours); format: cell-based, human
# Method in brief: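 Luminescent viability signal after 72 h of compound exposure gave GI50 values by four-parameter nonlinear regression. Compounds were added in 0.5% DMSO to cells plated 24 h earlier at 5000/well in DMEM containing 10% FBS.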
# T47D cells = test: Cellular growth inhibition assay for T47D cells (CellTiter-Glo, 72 hours); format: cell-based, human; details: 72 hours treatment
# Method in brief: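 Growth inhibition as GI50, fitted with four parameters to CellTiter-Glo luminescence after 72 h of compound exposure (0.5% DMSO). Cells were T47D, grown in insulin-supplemented (0.2 units/mL) DMEM with 10% FBS and treated one day post-seeding.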
SMILES,GI50 [1] [µM],GI50 ([2]; 72 h) [µM],"GI50 (VCaP cells; Homo sapiens, VCaP, 72 h) [µM]","GI50 (T47D cells; Homo sapiens, T47D, 72 h) [µM]",GI50 [2] [µM],GI50 (VCaP cells) [µM],GI50 (T47D cells) [µM]
Cc1sc2c(c1C)C(c1ccc(O[C@@H]3CC[C@]4(CCCN(c5ccc(C(=O)N[C@H]6CC[C@H](Oc7ccc(C#N)c(Cl)c7)CC6)nn5)C4)C3)cc1)=N[C@@H](Cc1ncco1)c1nnc(C)n1-2 [I-98],< 0.5,< 0.5,< 0.5,< 0.5,–,–,–
Cc1sc2c(c1C)C(c1ccc(CN3CC(=O)N4C[C@H](c5ccc(C(=O)N[C@H]6CC[C@H](Oc7ccc(C#N)c(Cl)c7)CC6)nn5)C[C@H]4C3=O)cc1)=N[C@@H](Cc1ncco1)c1nnc(C)n1-2 [I-343],< 0.5,> 3,1.5 to 3,> 3,–,–,–
Cc1sc2c(c1C)C(c1ccc(CC(=O)N3CCN(c4ccc(C(=O)N[C@H]5CC[C@H](Oc6ccc(C#N)c(Cl)c6)CC5)nn4)CC3)cc1)=N[C@@H](Cc1ncco1)c1nnc(C)n1-2 [I-319],< 0.5,> 3,< 0.5,< 0.5,–,–,–
Cc1sc2c(c1C)C(c1ccc(N(C)CC(=O)NCc3ccc(C(=O)N[C@H]4CC[C@H](Oc5ccc(C#N)c(Cl)c5)CC4)nn3)cc1)=N[C@@H](Cc1ncco1)c1nnc(C)n1-2 [I-332],> 3,> 3,> 3,> 3,–,–,–
Cc1sc2c(c1C)C(c1ccc(CC[C@@H]3CC[C@@]4(CCCN(c5ccc(C(=O)N[C@H]6CC[C@H](Oc7ccc(C#N)c(Cl)c7)CC6)nn5)C4)C3)cc1)=N[C@H](Cc1ncco1)c1nnc(C)n1-2 [I-216],< 0.5,< 0.5,< 0.5,< 0.5,–,–,–
Cc1sc2c(c1C)C(c1ccc(CN3CCN(C(=O)c4ccc(C(=O)N[C@H]5CC[C@H](Oc6ccc(C#N)c(Cl)c6)CC5)nn4)CC3)cc1)=N[C@@H](Cc1ncco1)c1nnc(C)n1-2 [I-242],< 0.5,< 0.5,< 0.5,< 0.5,–,–,–
Cc1sc2c(c1C)C(c1ccc(N3CCC4(CC3)CC(Cc3ccc(C(=O)N[C@H]5CC[C@H](Oc6ccc(C#N)c(Cl)c6)CC5)nn3)C4)cc1)=NC(Cc1ncco1)c1nnc(C)n1-2 (stereo partly drawn) [I-415],< 0.5,–,< 0.5,0.5 to 1.5,> 3,–,–
Cc1sc2c(c1C)C(c1ccc(O[C@H]3C[C@@]4(CCCN(c5ccc(C(=O)N[C@H]6CC[C@H](Oc7ccc(C#N)c(Cl)c7)CC6)nn5)C4)C3)cn1)=N[C@@H](Cc1ncco1)c1nnc(C)n1-2 [I-261],< 0.5,< 0.5,< 0.5,< 0.5,–,–,–
Cc1sc2c(c1C)C(c1ccc(N3CCN(C4CCN(c5ccc(C(=O)N[C@H]6CC[C@H](Oc7ccc(C#N)c(Cl)c7)CC6)nn5)CC4)C3=O)cc1)=NC(Cc1ncco1)c1nnc(C)n1-2 (stereo partly drawn) [I-413],< 0.5,–,–,–,> 3,1.5 to 3,1.5 to 3
Cc1sc2c(c1C)C(c1ccc(O[C@@H]3CC[C@@]4(CCCN(c5ccc(C(=O)N[C@H]6CC[C@H](Oc7ccc(C#N)c(Cl)c7)CC6)nn5)C4)C3)nc1)=N[C@@H](Cc1ncco1)c1nnc(C)n1-2 [I-285],< 0.5,–,< 0.5,–,> 3,–,1.5 to 3
Cc1sc2c(c1C)C(c1ccc([C@H]3CC[C@]4(C3)CN(c3ccc(C(=O)N[C@H]5CC[C@H](Oc6ccc(C#N)c(Cl)c6)CC5)nn3)CCO4)cc1)=N[C@@H](Cc1ncco1)c1nnc(C)n1-2 [I-363],> 3,> 3,> 3,> 3,–,–,–
Cc1sc2c(c1C)C(c1ccc(OC3CC4(CCN(c5ccc(C(=O)N[C@H]6CC[C@H](Oc7ccc(C#N)c(Cl)c7)CC6)nn5)CC4)C3)nc1)=N[C@@H](Cc1ncco1)c1nnc(C)n1-2 [I-223],< 0.5,0.5 to 1.5,< 0.5,0.5 to 1.5,–,–,–
Cc1sc2c(c1C)C(c1ccc(C#CCC3CCN(c4ccc(C(=O)N[C@H]5CC[C@H](Oc6ccc(C#N)c(Cl)c6)CC5)nn4)CC3)cc1)=N[C@H](Cc1ncco1)c1nnc(C)n1-2 [I-137],< 0.5,> 3,0.5 to 1.5,1.5 to 3,–,–,–
Cc1sc2c(c1C)C(c1ccc([C@H]3CC[C@@H](N4CCCN(c5ccc(C(=O)N[C@H]6CC[C@H](Oc7ccc(C#N)c(Cl)c7)CC6)nn5)CC4)CC3)cc1)=N[C@@H](Cc1ncco1)c1nnc(C)n1-2 [I-244],< 0.5,> 3,> 3,> 3,–,–,–
Cc1sc2c(c1C)C(c1ccc(C[C@@H]3CC[C@@]4(CCCN(c5ccc(C(=O)N[C@H]6CC[C@H](Oc7ccc(C#N)c(Cl)c7)CC6)nn5)C4)C3)cc1)=N[C@@H](Cc1ncco1)c1nnc(C)n1-2 [I-125],< 0.5,< 0.5,< 0.5,< 0.5,–,–,–
